Where a SMILES comes first, the peptide text is derived from it.
Tests used:
[1] = tested on: P. aeruginosa strain PAO1; settings: for final MIC of antibiotic: in the presence of subinhibitory concentrations of peptide P22, strain PAO1
Procedure: For these experiments we used the wild type P. aeruginosa strain PAO1, whose mechanisms of antibiotic resistance have been extensively studied.
(§1) The ability of the peptides to induce bacterial sensitization to antibiotics was determined by a standard checkerboard titration method in 96-well polystyrene microtiter plates. For this purpose, serial dilutions of the two antimicrobial agents were mixed together in a microtiter plate so that each row contained a fixed amount of peptide and increasing amounts of the antibiotic. Inocula and growth conditions were identical to those described for MIC determination. To assess the synergy between antibiotics and peptides, the Fractional Inhibitory Concentration (FIC) index of each combination was calculated according to the following formula: [(A)/MICA] + [(P)/MICP] = FICA + FICP = FIC index, where MICA and MICP are the MICs of the antibiotic and peptide determined separately, and (A) and (P) are the MICs of the antibiotic and peptide when determined in combination. A given peptide-antibiotic combination was considered as synergistic if its FIC index was ≤ 0.5.

Pseudomonas aeruginosa [2] = assay: NPN uptake permeabilization assay; format: cell-based; settings: peptide 50 μg/mL; NPN 10 μM; 5 mM HEPES pH 7.2 with 0.1% glucose; 37°C
Procedure: In addition to this indirect method, we used a direct assay which measures the ability of peptides to promote the entry of a hydrophobic fluorescent probe (1-N-phenylnaphthylamine; NPN) into the cell membrane. This method identifies potent permeabilizers as those causing rapid NPN uptake leading to a high level of fluorescence.
The peptides permeabilizing activity on the bacterial cell envelope was assessed by quantifying the uptake of 1-N-phenylnaphthylamine (NPN). These experiments were performed essentially as described by Loh and collaborators with some modifications. Briefly, bacterial cells were grown in LB broth to mid-logarithmic phase, washed in 5 mM HEPES buffer (N-2-hydroxyethylpiperazine-N'-2-ethanesulfonic acid, pH 7.2) and resuspended at an OD600 of 0.5 in HEPES supplemented with 0.1% glucose. Freshly prepared bacterial suspensions were allowed to stabilize at 37°C for 10 min in quartz cuvettes. NPN was added at a final concentration of 10 μM and fluorescence was measured with a fluorometer (LS-50, Perkin-Elmer, Wellesley, MA, USA) using the time drive recording mode, slit widths of 2.5 nm and excitation and emission wavelengths of 350 nm and 420 nm, respectively. Peptides were added to the cuvette at a final concentration of 50 μg/mL.

[3] = tested on: Pseudomonas aeruginosa 4158-02; assay: microbe, parasite or virus in culture; settings: for FIC index of peptide-novobiocin combination: checkerboard, peptides with MIC >250 μg/mL assigned 500 μg/mL, synergistic if ≤ 0.5; for synergistic activity with novobiocin, in words: subinhibitory peptide concentrations
Procedure: First, we studied the ability of the peptides to sensitize P. aeruginosa to novobiocin, a hydrophobic antibiotic that cannot reach its intracellular target (gyrase) due to its inability to cross an intact outer membrane. […] Specifically, for a combination to be considered synergistic MIC of each agent when combined have to be at least 4-times lower than that of the corresponding agent alone.
as §1

[4] = tested on: Bordetella bronchiseptica; assay: Bactericidal activity on resting bacteria in phosphate buffer with or without Ca2+/Mg2+; format: cell-based; settings: 20 mM phosphate pH 7.0 (PB vs PB-CM), 18 hours, viable counts
Procedure: (§2) All peptides were first screened for bactericidal activity under low ionic strength conditions on resting bacteria. For this purpose, we exposed bacterial cells in phosphate buffer (PB) to increasing concentrations of peptides and performed viable cell counts. Experimental designs similar to this are found in reports dealing with the biological characterization of peptides (see for instance). These experiments were performed on Escherichia coli, Pseudomonas aeruginosa and Bordetella bronchiseptica, three Gram-negative pathogens differing in sensitivity to APs.
(§3) The buffer used in the previous experiments was devoid of Ca^2+ and Mg^2+, two divalent cations known to contribute to outer membrane stabilization. […] However, the magnitude of the decrease varied markedly depending upon the peptide and strain.
(§4) The activity of the peptides was determined on non-growing bacteria by incubating bacterial suspensions containing number of CFU/mL identical to those used for the MIC assay (5 × 10^4 per microplate well) in low-ionic strength medium (20 mM phosphate, pH 7.0) with or without 1 mM Ca ^2+ and 1 mM Mg ^2+. After 18 hours, aliquots were plated onto MH agar to determine the presence of viable bacteria, as described above for the standard MBC assay.

Escherichia coli = assay: as above; format: cell-based; settings: 20 mM phosphate pH 7.0 (PB vs PB-CM), 18 hours, viable counts
Procedure: as §2, §3, §4

Pseudomonas aeruginosa [5] = assay: as above; format: cell-based; settings: 20 mM phosphate pH 7.0 (PB vs PB-CM), 18 hours, viable counts
Procedure: as §2, §3, §4

E. coli ATCC 25922 = assay: MIC/MBC in polypropylene vs. polystyrene microplates; format: cell-based, Escherichia coli; settings: for MIC, polypropylene vs. polystyrene plates: broth microdilution
Procedure: It has been reported that cationic peptides have affinity for certain plastics (i.e. polystyrene; [20]), and as a consequence some authors disfavor the use of microplates made of such material. To investigate this potential interference, we studied whether the composition of the microplate (polypropylene vs. polystyrene) affected the antibacterial activity of selected peptides differing in length, hydrophobicity and net charge when tested on E. coli ATCC 25922.
The peptides MICs were determined in Mueller-Hinton (MH) medium (Difco Laboratories, Sparks, MD, USA) by the broth microdilution assay following recommendations of the Clinical and Laboratory Standards Institute. Briefly, serial twofold dilutions of the peptides were made in MH broth and dispensed into 96-well U-bottom polystyrene microtiter plates (TPP, Trasadingen, Switzerland). Bacterial cells grown for 18–20 h on agar plates were suspended in saline and the turbidity was adjusted to an O.D600 of 0.04 (1 × 10^7 CFU/mL, approximately). A hundred-fold dilution of this suspension prepared in MH broth was mixed 1:1 with 100 μL of each of the corresponding peptide dilution. Plates were incubated at 37°C without shaking for 18–20 h and the MIC was determined visually. Minimum bactericidal concentration (MBC) was determined by plating aliquots from those wells with no growth onto MH agar plates. MBC was defined as the lowest concentration of the peptide causing a 99.9% loss of viability with respect to the CFU/mL inoculated.
The peptides MICs were also determined using polypropylene labware by the conventional broth microdilution assay as described above. For these experiments, polypropylene 96 well round bottom plates (Greiner; Sigma-Aldrich, USA) were used. Both this and all the previous antimicrobial susceptibility assays were performed at least in duplicate.

CC[C@H]1OC(=O)[C@H](C)[C@@H](O[C@H]2C[C@@](C)(OC)[C@@H](O)[C@H](C)O2)[C@H](C)[C@@H](O[C@@H]2O[C@H](C)C[C@H](N(C)C)[C@H]2O)[C@](C)(O)C[C@@H](C)C(=O)[C@H](C)[C@@H](O)[C@]1(C)O [erythromycin]
final MIC of antibiotic [1]: 1 µg/mL

FWQRNISKVR-NH2 [P 54]
NPN uptake (fluorescence rise) (Pseudomonas aeruginosa [2]): slowest and less prominent NPN-uptakes | classification by the novobiocin-sensitization technique [3]: poor permeabilizers

FWQRNIYKVR-NH2 [P 41]
NPN uptake (fluorescence rise) (Pseudomonas aeruginosa [2]): slowest and less prominent NPN-uptakes | classification by the novobiocin-sensitization technique [3]: poor permeabilizers

CC1(C)S[C@@H]2[C@H](NC(=O)[C@H](N)c3ccccc3)C(=O)N2[C@H]1C(=O)O [ampicillin]
final MIC of antibiotic [1]: 5 µg/mL

CC1(C)S[C@@H]2[C@H](NC(=O)[C@H](N)c3ccc(O)cc3)C(=O)N2[C@H]1C(=O)O [amoxicillin]
final MIC of antibiotic [1]: 2 µg/mL

CCn1cc(C(=O)O)c(=O)c2ccc(C)nc21 [nalidixic acid]
final MIC of antibiotic [1]: 2 µg/mL

Polymyxin B [PMB]
effect of 1 mM Ca2+ and 1 mM Mg2+ on bactericidal activity [4]: not significantly affected by the divalent cations | effect of 1 mM Ca2+ and 1 mM Mg2+ on bactericidal activity (Escherichia coli): not significantly affected by the divalent cations | effect of 1 mM Ca2+ and 1 mM Mg2+ on bactericidal activity (Pseudomonas aeruginosa [5]): not significantly affected by the divalent cations | MIC, polypropylene vs. polystyrene plates (E. coli ATCC 25922): higher activity (lower MIC value) when assayed in polypropylene

FWQRNIRKVRRRR-NH2 [P 11, LF11 derived synthetic peptide, amidated C-terminus]
MBC, polypropylene vs. polystyrene plates (E. coli ATCC 25922): lower in polystyrene | MIC, polypropylene vs. polystyrene plates (E. coli ATCC 25922): same MIC in both materials

FWQRNIRKVKKKI-NH2 [P 14]
FIC index of peptide-novobiocin combination [3]: best compounds as judged by their FIC indices | decrease in novobiocin MIC (MIC ratio without/with peptide) ([3]; peptide added at 6.25 μg/mL): 4 fold | times the synergistic peptide concentration (6.25 μg/mL) is lower than the peptide's own MIC ([3]; peptide at 6.25 μg/mL): at least 40 times

FWRNIRKVR-NH2 [P 3]
NPN uptake (fluorescence rise) (Pseudomonas aeruginosa [2]): slowest and less prominent NPN-uptakes | classification by the novobiocin-sensitization technique [3]: poor permeabilizers

CO[C@H]1/C=C/O[C@@]2(C)Oc3c(C)c(O)c4c(O)c(c(/C=N/N5CCN(C)CC5)c(O)c4c3C2=O)NC(=O)/C(C)=C\C=C\[C@H](C)[C@H](O)[C@@H](C)[C@@H](O)[C@@H](C)[C@H](OC(C)=O)[C@@H]1C [rifampicin]
final MIC of antibiotic [1]: 0.07 µg/mL

FWLRNIRKVR-NH2 [P 48]
FIC index of peptide-novobiocin combination [3]: low FIC indices

CFWQRNIRKVRC-NH2 [P 28]
NPN uptake (fluorescence rise) (Pseudomonas aeruginosa [2]): slowest and less prominent NPN-uptakes | classification by the novobiocin-sensitization technique [3]: poor permeabilizers

FWARNIRKVR-NH2 [P 46, LF11 derived synthetic peptide, amidated C-terminus]
MBC, polypropylene vs. polystyrene plates (E. coli ATCC 25922): improved its MBC when using polypropylene instead of polystyrene

FWQRRIRKVRR-NH2 [P 15]
FIC index of peptide-novobiocin combination [3]: low FIC indices | synergistic activity with novobiocin, in words [3]: synergistic activity at low concentrations

CO[C@@H]1[C@@H](OC(N)=O)[C@@H](O)[C@H](Oc2ccc3c(O)c(NC(=O)c4ccc(O)c(CC=C(C)C)c4)c(=O)oc3c2C)OC1(C)C [novobiocin, reference compound]
MIC ([3]; Pseudomonas aeruginosa, 415802, read-out: novobiocin MIC in the absence of peptides): ≥ 512 µg/mL | final MIC of antibiotic [1]: 5 µg/mL

FWQRNIRKVKKK-NH2 [P 10]
FIC index of peptide-novobiocin combination [3]: best compounds as judged by their FIC indices | synergistic activity with novobiocin, in words [3]: synergistic activity at low concentrations

CC[C@H](C)[C@H](NC(=O)[C@H](CC(N)=O)NC(=O)[C@H](CCCNC(=N)N)NC(=O)[C@H](CCC(N)=O)NC(=O)[C@H](Cc1c[nH]c2ccccc12)NC(=O)[C@H](Cc1ccccc1)NC(=O)[C@@H](N)CCCNC(=N)N)C(=O)N[C@@H](CCCNC(=N)N)C(=O)N[C@@H](CCCCN)C(=O)N[C@@H](Cc1ccc(O)cc1)C(=O)N[C@@H](CCCNC(=N)N)C(=O)N[C@@H](CCCNC(=N)N)C(N)=O [P 22] (H-RFWQRNIRKYRR-NH2)
FIC of P22-antibiotic combinations ([1]; PAO1): < 0.5 | peptide MIC ([1]; PAO1): 31.25 µg/mL

FWQRNIRKVKKKK-NH2 [P 13, LF11 derived synthetic peptide, amidated C-terminus]
MBC, polypropylene vs. polystyrene plates (E. coli ATCC 25922): not significantly affected by the type of material used | MIC, polypropylene vs. polystyrene plates (E. coli ATCC 25922): MIC improved in polypropylene plates
